Key:
[1] = tested on: Human large cell immunoblastic lymphoma cell line SR; experiment: Inhibition of SR cell proliferation (CellTiter luminescent viability); assay type: cell-based; details: Table IB1, ALK inhibitor-based, 96 hours, read-out: Inhibitory activity (IC50, nM) on tumor cell proliferation, SR
Summary of the method: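 IC50 is fitted from luminescent viability (CellTiter-Meiluncell) curves. Nine-point, 5-fold dilution series (top stock 2000 μM) are added at 0.5 μL per 100 μL medium to cells plated the day before, with growth at 37 °C and 5% CO2.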

[2] = molecular target: T1, ALK (Homo sapiens, UniProt Q9UM73); experiment: Western blot degradation of ALK; assay type: cell-based; details: H2228 Cell; 24 hours
T1 construct: known EML4-ALK variant 3 fusion, ALK kinase part unmutated), Western blot
T1 sequence (Q9UM73 19-1620): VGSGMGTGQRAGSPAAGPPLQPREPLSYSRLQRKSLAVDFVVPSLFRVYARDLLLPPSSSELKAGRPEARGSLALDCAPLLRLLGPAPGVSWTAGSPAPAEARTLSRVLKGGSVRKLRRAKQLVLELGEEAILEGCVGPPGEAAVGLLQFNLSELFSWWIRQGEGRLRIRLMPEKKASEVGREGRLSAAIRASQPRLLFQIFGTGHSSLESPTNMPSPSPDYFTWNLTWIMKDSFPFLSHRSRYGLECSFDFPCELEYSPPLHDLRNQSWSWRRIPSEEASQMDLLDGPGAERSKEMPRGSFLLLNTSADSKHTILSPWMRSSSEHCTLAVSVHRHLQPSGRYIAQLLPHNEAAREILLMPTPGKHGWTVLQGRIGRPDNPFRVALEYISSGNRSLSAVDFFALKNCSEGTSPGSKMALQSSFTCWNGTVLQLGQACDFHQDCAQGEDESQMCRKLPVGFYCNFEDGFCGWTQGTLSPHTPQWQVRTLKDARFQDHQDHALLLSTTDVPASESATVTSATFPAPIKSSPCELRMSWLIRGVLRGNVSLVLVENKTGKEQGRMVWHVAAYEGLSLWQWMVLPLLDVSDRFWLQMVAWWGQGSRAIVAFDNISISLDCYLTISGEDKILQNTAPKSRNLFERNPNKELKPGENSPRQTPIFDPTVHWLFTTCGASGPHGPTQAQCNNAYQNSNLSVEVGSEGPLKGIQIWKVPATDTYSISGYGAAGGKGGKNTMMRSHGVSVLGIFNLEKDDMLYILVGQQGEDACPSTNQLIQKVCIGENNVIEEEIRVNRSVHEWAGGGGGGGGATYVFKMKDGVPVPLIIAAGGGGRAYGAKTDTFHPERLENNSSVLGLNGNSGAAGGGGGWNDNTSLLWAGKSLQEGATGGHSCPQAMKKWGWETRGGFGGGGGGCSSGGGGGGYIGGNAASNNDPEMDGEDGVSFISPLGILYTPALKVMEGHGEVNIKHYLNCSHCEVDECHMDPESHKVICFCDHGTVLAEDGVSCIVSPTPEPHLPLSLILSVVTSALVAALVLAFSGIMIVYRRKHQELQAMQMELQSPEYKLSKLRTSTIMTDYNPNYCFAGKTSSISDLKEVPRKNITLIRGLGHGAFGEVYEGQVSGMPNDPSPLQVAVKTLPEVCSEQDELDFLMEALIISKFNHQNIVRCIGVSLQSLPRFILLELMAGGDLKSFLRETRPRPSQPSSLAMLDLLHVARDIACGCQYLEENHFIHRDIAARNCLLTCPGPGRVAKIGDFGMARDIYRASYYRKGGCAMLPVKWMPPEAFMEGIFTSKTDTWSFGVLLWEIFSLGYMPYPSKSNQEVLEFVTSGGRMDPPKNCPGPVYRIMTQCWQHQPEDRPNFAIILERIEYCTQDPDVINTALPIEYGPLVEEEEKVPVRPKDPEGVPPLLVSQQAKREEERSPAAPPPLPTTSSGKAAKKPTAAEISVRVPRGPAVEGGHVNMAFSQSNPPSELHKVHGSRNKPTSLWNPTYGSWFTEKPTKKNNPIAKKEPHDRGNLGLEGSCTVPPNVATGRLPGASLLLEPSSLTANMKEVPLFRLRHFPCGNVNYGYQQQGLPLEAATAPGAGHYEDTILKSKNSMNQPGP
T1 sequence (Q96SW2 whole entry partner, the tested form may be a part): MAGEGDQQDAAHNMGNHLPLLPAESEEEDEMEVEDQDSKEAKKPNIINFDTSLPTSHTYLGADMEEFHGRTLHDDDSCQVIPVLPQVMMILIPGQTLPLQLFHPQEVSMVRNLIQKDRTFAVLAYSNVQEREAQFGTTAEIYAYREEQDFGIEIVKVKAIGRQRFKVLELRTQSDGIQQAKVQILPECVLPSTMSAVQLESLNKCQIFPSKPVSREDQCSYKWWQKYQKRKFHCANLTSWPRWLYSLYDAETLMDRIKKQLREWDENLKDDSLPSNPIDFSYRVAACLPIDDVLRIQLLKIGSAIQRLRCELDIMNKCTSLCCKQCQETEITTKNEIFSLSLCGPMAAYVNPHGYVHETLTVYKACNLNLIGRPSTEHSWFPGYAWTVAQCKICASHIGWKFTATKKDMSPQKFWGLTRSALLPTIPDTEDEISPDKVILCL
Procedure: Conventional Western blot assay was performed to evaluate the effects of the compounds of the present disclosure on the expression of target proteins in cells.
(1) Cell Seeding and Protein Harvesting: The selected cells were processed according to the cell seeding procedure and protein harvesting procedure in Table II-2.
(2) To the collected supernatant, 5×SDS sample loading buffer was added, followed by denaturation at 95 °C for 5 minutes. The denatured samples were then separated by SDS-PAGE electrophoresis on a polyacrylamide gel. Proteins were transferred to a nitrocellulose membrane (0.45 μm NC membrane), blocked with blocking buffer at room temperature for 1 hour, and subjected to antibody incubation and development procedures according to the antibody manufacturer's instructions (Cell Signaling Technology).
Half-Maximal Degradation Concentration value (the drug concentration required for degrading proteins by 50%, abbreviated as DC50) reads method: comparing the grayscale values of Western blot bands from drug-treated samples with those from blank DMSO-treated controls, and identifying the drug concentration range at which the grayscale value is half that of the DMSO-treated control bands.
DC50 values can be calculated using ImageJ software to measure grayscale values of Western blot bands from drug-treated samples. The concentration-response curve is fitted to estimate the drug concentration corresponding to half the grayscale value.
Target protein remaining (%) refers to the percentage of target protein remaining in cells after treatment with protein degrader compounds.
Calculation method for target protein remaining (%): Use ImageJ software to measure grayscale values of Western blot bands from drug (protein degrader)-treated samples. The grayscale value of drug-treated bands is divided by that of internal control protein bands, and the resulting quotient is normalized to obtain the relative percentage of remaining target protein after protein degrader treatment.
Target protein degradation rate (%)=1−target protein remaining (%).

SMILES	IC50 [1]	Degradation of substrate protein ALK (substrate protein remaining %) [2]
CCc1cc2c(cc1N1CCC(N3CCN(CC4CCN(c5ccc6c(c5)C(=O)N(N5CCC(=O)NC5=O)C6=O)CC4)CC3)CC1)C(C)(C)c1[nH]c3cc(C#N)ccc3c1C2=O [GT-06823, 8-(4-(4-((1-(2-(2,4-dioxotetrahydropyrimidin-1(2H)-yl)-1,3-dioxoisoindolin-5-yl)piperidin-4-yl)methyl)piperazin-1-yl)piperidin-1-yl)-9-ethyl-6,6-dimethyl-11-oxo-6,11-dihydro-5H-benzo[b]carbazole-3-carbonitrile]	10 to 50 nM	A (0%≤substrate protein remaining %≤80%)
CCc1cc2c(cc1N1CCN(CC3CCN(c4ccc5c(c4)C(=O)N(N4CCC(=O)NC4=O)C5=O)CC3)CC1)C(C)(C)c1[nH]c3cc(C#N)ccc3c1C2=O [GT-07321, 8-(4-((1-(2-(2,4-dioxotetrahydropyrimidin-1(2H)-yl)-1,3-dioxoisoindolin-5-yl)piperidin-4-yl)methyl)piperazin-1-yl)-9-ethyl-6,6-dimethyl-11-oxo-6,11-dihydro-5H-benzo[b]carbazole-3-carbonitrile]	50 to 100 nM	A (0%≤substrate protein remaining %≤80%)
CCc1cc2c(cc1N1CCN(Cc3ccc4c(c3)C(=O)N(N3CCC(=O)NC3=O)C4=O)CC1)C(C)(C)c1[nH]c3cc(C#N)ccc3c1C2=O [GT-07320, 8-(4-((2-(2,4-dioxotetrahydropyrimidin-1(2H)-yl)-1,3-dioxoisoindolin-5-yl)methyl)piperazin-1-yl)-9-ethyl-6,6-dimethyl-11-oxo-6,11-dihydro-5H-benzo[b]carbazole-3-carbonitrile]	100 to 300 nM	A (0%≤substrate protein remaining %≤80%)
Cc1cc(Nc2ncc(Cl)c(Nc3ccccc3S(=O)(=O)C(C)C)n2)c(OC(C)C)cc1C1CCN(Cc2ccc3c(c2)C(=O)N(N2CCC(=O)NC2=O)C3=O)CC1 [GT-07363, 5-((4-(4-((5-chloro-4-((2-(isopropylsulfonyl)phenyl)amino)pyrimidin-2-yl)amino)-5-isopropoxy-2-methylphenyl)piperidin-1-yl)methyl)-2-(2,4-dioxotetrahydropyrimidin-1(2H)-yl)isoindoline-1,3-dione]	100 to 300 nM	A (0%≤substrate protein remaining %≤80%)
COc1cc(N2CCN(Cc3ccc4c(c3)CN(N3CCC(=O)NC3=O)C4=O)CC2)ccc1Nc1ncc(Cl)c(Nc2ccccc2P(C)(C)=O)n1 [GT-07341, 1-(5-((4-(4-((5-chloro-4-((2-(dimethylphosphoryl)phenyl)amino)pyrimidin-2-yl)amino)-3-methoxyphenyl)piperazin-1-yl)methyl)-1-oxoisoindolin-2-yl)dihydropyrimidine-2,4 (1H,3H)-dione]	10 to 50 nM	A (0%≤substrate protein remaining %≤80%)
CCc1cc2c(cc1N1CCN(CC3CCN(c4cccc5c4C(=O)N(N4CCC(=O)NC4=O)C5=O)CC3)CC1)C(C)(C)c1[nH]c3cc(C#N)ccc3c1C2=O [GT-07322, 8-(4-((1-(2-(2,4-dioxotetrahydropyrimidin-1(2H)-yl)-1,3-dioxoisoindolin-4-yl)piperidin-4-yl)methyl)piperazin-1-yl)-9-ethyl-6,6-dimethyl-11-oxo-6,11-dihydro-5H-benzo[b]carbazole-3-carbonitrile]	10 to 50 nM	A (0%≤substrate protein remaining %≤80%)
Cc1cc(Nc2ncc(Cl)c(Nc3ccccc3S(=O)(=O)C(C)C)n2)c(OC(C)C)cc1C1CCN(Cc2ccc3c(c2)CN(N2CCC(=O)NC2=O)C3=O)CC1 [GT-07362, 1-(5-((4-(4-((5-chloro-4-((2-(isopropylsulfonyl)phenyl)amino)pyrimidin-2-yl)amino)-5-isopropoxy-2-methylphenyl)piperidin-1-yl)methyl)-1-oxoisoindolin-2-yl)dihydropyrimidine-2,4 (1H,3H)-dione]	10 to 50 nM	A (0%≤substrate protein remaining %≤80%)
CCc1cc2c(cc1N1CCC(N3CCN(CC4CCN(c5cccc6c5C(=O)N(N5CCC(=O)NC5=O)C6=O)CC4)CC3)CC1)C(C)(C)c1[nH]c3cc(C#N)ccc3c1C2=O [GT-07298, 8-(4-(4-((1-(2-(2,4-dioxotetrahydropyrimidin-1(2H)-yl)-1,3-dioxoisoindolin-4-yl)piperidin-4-yl)methyl)piperazin-1-yl)piperidin-1-yl)-9-ethyl-6,6-dimethyl-11-oxo-6,11-dihydro-5H-benzo[b]carbazole-3-carbonitrile]	10 to 50 nM	A (0%≤substrate protein remaining %≤80%)
COc1cc(N2CCN(CC3CCN(c4cccc5c4C(=O)N(N4CCC(=O)NC4=O)C5=O)CC3)CC2)ccc1Nc1ncc(Cl)c(Nc2ccccc2P(C)(C)=O)n1 [GT-07344, 4-(4-((4-(4-((5-chloro-4-((2-(dimethylphosphoryl)phenyl)amino)pyrimidin-2-yl)amino)-3-methoxyphenyl)piperazin-1-yl)methyl)piperidin-1-yl)-2-(2,4-dioxotetrahydropyrimidin-1(2H)-yl)isoindoline-1,3-dione]	50 to 100 nM	A (0%≤substrate protein remaining %≤80%)
COc1cc(N2CCN(CC3CCN(c4ccc5c(c4)C(=O)N(N4CCC(=O)NC4=O)C5=O)CC3)CC2)ccc1Nc1ncc(Cl)c(Nc2ccccc2P(C)(C)=O)n1 [GT-07343, 5-(4-((4-(4-((5-chloro-4-((2-(dimethylphosphoryl)phenyl)amino)pyrimidin-2-yl)amino)-3-methoxyphenyl)piperazin-1-yl)methyl)piperidin-1-yl)-2-(2,4-dioxotetrahydropyrimidin-1(2H)-yl)isoindoline-1,3-dione]	50 to 100 nM	A (0%≤substrate protein remaining %≤80%)
CCc1cc2c(cc1N1CCC(N3CCN(Cc4ccc5c(c4)CN(N4CCC(=O)NC4=O)C5=O)CC3)CC1)C(C)(C)c1[nH]c3cc(C#N)ccc3c1C2=O [GT-06822, 8-(4-(4-((2-(2,4-dioxotetrahydropyrimidin-1(2H)-yl)-1-oxoisoindolin-5-yl)methyl)piperazin-1-yl)piperidin-1-yl)-9-ethyl-6,6-dimethyl-11-oxo-6,11-dihydro-5H-benzo[b]carbazole-3-carbonitrile]	10 to 50 nM	A (0%≤substrate protein remaining %≤80%)
CCc1cc2c(cc1N1CCC(N3CCN(Cc4ccc5c(c4)C(=O)N(N4CCC(=O)NC4=O)C5=O)CC3)CC1)C(C)(C)c1[nH]c3cc(C#N)ccc3c1C2=O [GT-04661, 8-(4-(4-((2-(2,4-dioxotetrahydropyrimidin-1(2H)-yl)-1,3-dioxoisoindolin-5-yl)methyl)piperazin-1-yl)piperidin-1-yl)-9-ethyl-6,6-dimethyl-11-oxo-6,11-dihydro-5H-benzo[b]carbazole-3-carbonitrile]		A (0%≤substrate protein remaining %≤80%)
COc1cc(N2CCN(Cc3ccc4c(c3)C(=O)N(N3CCC(=O)NC3=O)C4=O)CC2)ccc1Nc1ncc(Cl)c(Nc2ccccc2P(C)(C)=O)n1 [GT-07342, 5-((4-(4-((5-chloro-4-((2-(dimethylphosphoryl)phenyl)amino)pyrimidin-2-yl)amino)-3-methoxyphenyl)piperazin-1-yl)methyl)-2-(2,4-dioxotetrahydropyrimidin-1(2H)-yl)isoindoline-1,3-dione]	100 to 300 nM	A (0%≤substrate protein remaining %≤80%)
CCc1cc2c(cc1N1CCN(Cc3ccc4c(c3)CN(N3CCC(=O)NC3=O)C4=O)CC1)C(C)(C)c1[nH]c3cc(C#N)ccc3c1C2=O [GT-07340, 8-(4-((2-(2,4-dioxotetrahydropyrimidin-1(2H)-yl)-1-oxoisoindolin-5-yl)methyl)piperazin-1-yl)-9-ethyl-6,6-dimethyl-11-oxo-6,11-dihydro-5H-benzo[b]carbazole-3-carbonitrile]	10 to 50 nM	A (0%≤substrate protein remaining %≤80%)

From patent US20260364184A1, “COMPOUND BASED ON OXOISOINDOLINYL-SUBSTITUTED TETRAHYDROPYRIMIDINE-DIONE AND USE THEREOF” (GLUETACS THERAPEUTICS (SHANGHAI) CO., LTD., priority 2023, published 2026)
